Experimental data from US20060004197A1, “Sulfonamide-based compounds as protein tyrosine kinase inhibitors” (priority 2004, published 2006).

Tests used:
Assay type in all cases: biochemical
Recombinant human Src = target: T1, Recombinant human Src (Homo sapiens, UniProt P12931); assay: Src tyrosine kinase activity, poly E4Y / 32P-ATP phosphorylation assay
T1 construct: made in house; host or cells: baculovirus-insect cell system

Recombinant Csk = Recombinant Csk (Homo sapiens, UniProt P41240); assay: Csk tyrosine kinase activity, poly E4Y / 32P-ATP phosphorylation assay
Recombinant Csk, sequence (P41240 whole entry, species assumed): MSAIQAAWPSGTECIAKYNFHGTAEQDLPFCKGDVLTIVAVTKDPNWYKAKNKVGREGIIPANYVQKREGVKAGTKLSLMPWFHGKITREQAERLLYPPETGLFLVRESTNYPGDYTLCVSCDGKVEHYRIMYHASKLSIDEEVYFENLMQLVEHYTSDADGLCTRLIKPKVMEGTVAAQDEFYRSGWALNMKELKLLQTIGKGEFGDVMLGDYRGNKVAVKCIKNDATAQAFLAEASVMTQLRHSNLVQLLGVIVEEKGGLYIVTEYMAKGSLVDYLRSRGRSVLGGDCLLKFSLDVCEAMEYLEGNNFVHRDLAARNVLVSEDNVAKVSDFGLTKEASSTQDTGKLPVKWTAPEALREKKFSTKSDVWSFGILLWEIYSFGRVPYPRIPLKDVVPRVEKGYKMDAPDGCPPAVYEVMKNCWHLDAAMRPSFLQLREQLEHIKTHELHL

FGF receptor (FGFr) = assay: FGFr tyrosine kinase activity, poly E4Y / 32P-ATP phosphorylation assay
[1] = Table 3, Formula II compounds, NI = no inhibition at 100 μg/mL
[2] = Table 2, Formula I compounds, NI = no inhibition at 100 μg/mL
[3] = poly E4Y / 32P-ATP, Formula IV compounds

T1 sequence (P12931 whole entry): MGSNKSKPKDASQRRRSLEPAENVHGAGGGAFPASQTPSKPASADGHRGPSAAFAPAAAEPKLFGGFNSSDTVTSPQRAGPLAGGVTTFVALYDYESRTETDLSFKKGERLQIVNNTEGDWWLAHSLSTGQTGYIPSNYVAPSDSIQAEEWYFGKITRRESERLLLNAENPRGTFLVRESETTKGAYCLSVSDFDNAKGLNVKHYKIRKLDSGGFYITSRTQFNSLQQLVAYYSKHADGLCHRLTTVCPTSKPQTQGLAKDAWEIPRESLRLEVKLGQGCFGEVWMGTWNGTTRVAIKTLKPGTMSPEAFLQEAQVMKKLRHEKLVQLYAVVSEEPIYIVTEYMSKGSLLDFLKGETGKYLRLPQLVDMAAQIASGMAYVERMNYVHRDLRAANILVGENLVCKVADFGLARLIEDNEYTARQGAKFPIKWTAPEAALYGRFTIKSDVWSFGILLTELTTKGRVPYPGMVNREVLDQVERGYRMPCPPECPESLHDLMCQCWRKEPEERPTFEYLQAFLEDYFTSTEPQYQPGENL

CCc1ccc(S(=O)(=O)Nc2ccc(Oc3ccc(OC)cc3)cc2NS(=O)(=O)c2ccc(CC)cc2)cc1 [Compound 12a, 4-ethyl-N-[2-(4-ethyl-benzenesulfonylamino)-4-(4-methoxy-phenoxy)-phenyl]-benzenesulfonamide]
IC50 (Recombinant human Src; [1]): 23 µM
IC50 (Recombinant Csk; [1]): > 176 µM
IC50 (FGF receptor (FGFr); [1]): 44 µM

Cc1ccc(S(=O)(=O)Nc2ccc(N(C)C)cc2NS(=O)(=O)c2ccc(C)cc2)cc1 [Compound 17c, N-[4-dimethylamino-2-(4-toluenesulfonylamino)-phenyl]-4-toluenesulfonamide]
IC50 (Recombinant human Src; [1]): 39 µM
IC50 (Recombinant Csk; [1]): > 218 µM
IC50 (FGF receptor (FGFr); [1]): 98 µM

COc1ccc(Oc2ccc(NS(=O)(=O)c3ccccc3)c(NS(=O)(=O)c3ccccc3)c2)cc1 [Compound 12n, N-[2-benzenesulfonylamino-4-(4-methoxy-phenoxy)-phenyl]-benzenesulfonamide]
IC50 (Recombinant human Src; [1]): 29 µM
IC50 (Recombinant Csk; [1]): > 196 µM
IC50 (FGF receptor (FGFr); [1]): 24 µM

COc1ccc(Oc2ccc(NS(=O)(=O)c3c(C)cc(C)cc3C)c(NS(=O)(=O)c3c(C)cc(C)cc3C)c2)cc1 [Compound 12q, N-[4-(4-methoxy-phenoxy)-2-(2,4,6-trimethylbenzenesulfonylamino)-phenyl]-2,4,6-trimethylbenzenesulfonamide]
IC50 (Recombinant human Src; [1]): 39 µM
IC50 (Recombinant Csk; [1]): > 168 µM
IC50 (FGF receptor (FGFr); [1]): 42 µM

Cc1ccc(S(=O)(=O)Nc2cc(-c3ccccc3)c([N+](=O)[O-])cc2NS(=O)(=O)c2ccc(C)cc2)cc1 [Compound 8, N-[5-nitro-4-phenyl-2-(4-toluenesulfonylamino)-phenyl]-4-toluenesulfonamide]
IC50 (Recombinant human Src; [2]): 1.7 µM
IC50 (Recombinant Csk; [2]): 10.4 µM
IC50 (FGF receptor (FGFr); [2]): 4.9 µM

CS(=O)(=O)Nc1cc(Sc2ccc(Cl)cc2)c([N+](=O)[O-])cc1NS(C)(=O)=O [Compound 4u, N-[5-(4-chloro-phenylsulfanyl)-2-methanesulfonylamino-4-nitro-phenyl]-methanesulfonamide]
IC50 (Recombinant human Src; [2]): 590 µM
IC50 (Recombinant Csk; [2]): 333 µM
IC50 (FGF receptor (FGFr); [2]): 188 µM

Cc1ccc(S(=O)(=O)Nc2cc(Sc3ccccc3Cl)c([N+](=O)[O-])cc2NS(=O)(=O)c2ccc(C)cc2)cc1 [Compound 4f, N-[4-(2-chloro-phenylsulfanyl)-5-nitro-2-(4-toluenesulfonylamino)-phenyl]-4-toluenesulfonamide]
IC50 (Recombinant human Src; [2]): 2.5 µM
IC50 (Recombinant Csk; [2]): 10.8 µM
IC50 (FGF receptor (FGFr); [2]): 10.8 µM

COc1ccc(Oc2ccc(NS(=O)(=O)c3ccc(OC)c(OC)c3)c(NS(=O)(=O)c3ccc(OC)c(OC)c3)c2)cc1 [Compound 12m, N-[2-(3,4-dimethoxy-benzenesulfonylamino)-4-(4-methoxy-phenoxy)-phenyl]-3,4-dimethoxy-benzenesulfonamide]
IC50 (Recombinant human Src; [1]): 54 µM
IC50 (Recombinant Csk; [1]): > 159 µM
IC50 (μM) FGFr (FGF receptor (FGFr); [1]): NI (NI = no inhibition at 100 μg/mL)

Cc1ccc(S(=O)(=O)Nc2ccc(Oc3cccc(CC(=O)O)c3)cc2NS(=O)(=O)c2ccc(C)cc2)cc1 [Compound 12y, {3-[3,4-bis(4-toluenesulfonylamino)-phenoxy]-phenyl}-acetic acid]
IC50 (Recombinant human Src; [1]): 11 µM
IC50 (Recombinant Csk; [1]): 104 µM
IC50 (FGF receptor (FGFr); [1]): 26 µM

Cc1ccc(C(=O)Nc2cc([N+](=O)[O-])c(Sc3ccc(Cl)cc3)cc2N)cc1 [Compound 56, N-[2-amino-4-(4-chloro-phenylsulfanyl)-5-nitro-phenyl]-4-toluamide]
IC50 (Recombinant human Src; [3]): > 242 µM
IC50 (Recombinant Csk; [3]): > 242 µM
IC50 (FGF receptor (FGFr); [3]): 410 µM

Cc1ccc(S(=O)(=O)Nc2cc(Sc3ccccc3C(C)C)c([N+](=O)[O-])cc2NS(=O)(=O)c2ccc(C)cc2)cc1 [Compound 4n, N-[4-(2-isopropyl-phenylsulfanyl)-5-nitro-2-(4-toluenesulfonylamino)-phenyl]-4-toluenesulfonamide]
IC50 (Recombinant human Src; [2]): 1.3 µM
IC50 (Recombinant Csk; [2]): 5.7 µM
IC50 (FGF receptor (FGFr); [2]): 4.3 µM

Cc1ccc(S(=O)(=O)Nc2cc(Sc3ccccc3C)c([N+](=O)[O-])cc2NS(=O)(=O)c2ccc(C)cc2)cc1 [Compound 4j, N-[5-nitro-2-(4-toluenesulfonylamino)-4-(o-tolylsulfanyl)-phenyl]-4-toluenesulfonamide]
IC50 (Recombinant human Src; [2]): 1.7 µM
IC50 (Recombinant Csk; [2]): 12 µM
IC50 (FGF receptor (FGFr); [2]): 8.6 µM

COc1ccc(Oc2ccc(NS(=O)(=O)Cc3ccccc3)c(NS(=O)(=O)Cc3ccccc3)c2)cc1 [Compound 12g, N-[4-(4-methoxy-phenoxy)-2-phenylmethanesulfonylamino-phenyl]-C-phenyl-methanesulfonamide]
IC50 (Recombinant human Src; [1]): 35 µM
IC50 (Recombinant Csk; [1]): 102 µM
IC50 (FGF receptor (FGFr); [1]): 70 µM

Cc1ccc(S(=O)(=O)Nc2cc(SCc3ccccc3Cl)c([N+](=O)[O-])cc2NS(=O)(=O)c2ccc(C)cc2)cc1 [Compound 4r, N-[4-(2-chloro-benzylsulfanyl)-5-nitro-2-(4-toluenesulfonylamino)-phenyl]-4-toluenesulfonamide]
IC50 (Recombinant human Src; [2]): 0.65 µM
IC50 (Recombinant Csk; [2]): 4.2 µM
IC50 (FGF receptor (FGFr); [2]): 1.9 µM

Cc1ccc(S(=O)(=O)Nc2cc(SCc3ccc(Cl)cc3)c([N+](=O)[O-])cc2NS(=O)(=O)c2ccc(C)cc2)cc1 [Compound 4q, N-[4-(4-chloro-benzylsulfanyl)-5-nitro-2-(4-toluenesulfonylamino)-phenyl]-4-toluenesulfonamide]
IC50 (Recombinant human Src; [2]): 1 µM
IC50 (Recombinant Csk; [2]): 4.1 µM
IC50 (FGF receptor (FGFr); [2]): 2.7 µM

COc1ccc(Oc2ccc(NS(=O)(=O)c3ccc(C)cc3)c(O)c2)cc1 [Compound 59, N-[2-hydroxy-4-(4-methoxy-phenoxy)-phenyl]-4-toluenesulfonamide]
IC50 (Recombinant human Src; [3]): 65 µM
IC50 (Recombinant Csk; [3]): > 259 µM
IC50 (FGF receptor (FGFr); [3]): 65 µM

Cc1ccc(S(=O)(=O)Nc2ccc(OCc3ccccc3Cl)cc2NS(=O)(=O)c2ccc(C)cc2)cc1 [Compound 15d, N-[4-(2-chloro-benzyloxy)-2-(4-toluenesulfonylamino)-phenyl]-4-toluenesulfonamide]
IC50 (Recombinant human Src; [1]): 14 µM
IC50 (Recombinant Csk; [1]): 59 µM
IC50 (FGF receptor (FGFr); [1]): 66 µM

COc1ccc(OCc2ccc(OC)c(NS(=O)(=O)c3ccc(C)cc3)c2)cc1 [Compound 66, N-[2-methoxy-5-(4-methoxy-phenoxymethyl)-phenyl]-4-toluenesulfonamide]
IC50 (Recombinant human Src; [3]): 119 µM
IC50 (Recombinant Csk; [3]): > 242 µM
IC50 (FGF receptor (FGFr); [3]): 162 µM

Cc1ccc(S(=O)(=O)Nc2ccc(Oc3ccc(Cl)cc3)cc2NS(=O)(=O)c2ccc(C)cc2)cc1 [Compound 12w, N-[4-(4-chloro-phenoxy)-2-(4-toluenesulfonylamino)-phenyl]-4-toluenesulfonamide]
IC50 (Recombinant human Src; [1]): 5.5 µM
IC50 (Recombinant Csk; [1]): 185 µM
IC50 (FGF receptor (FGFr); [1]): 15.3 µM

Cc1ccc(S(=O)(=O)Nc2cc(Sc3ccccc3)c([N+](=O)[O-])cc2NS(=O)(=O)c2ccc(C)cc2)cc1 [Compound 4o, N-[5-nitro-4-phenylsulfanyl-2-(4-toluenesulfonylamino)-phenyl]-4-toluenesulfonamide]
IC50 (Recombinant human Src; [2]): 1.3 µM
IC50 (Recombinant Csk; [2]): 5.7 µM
IC50 (FGF receptor (FGFr); [2]): 1.8 µM

Cc1ccc(S(=O)(=O)Nc2ccc(-c3ccc(Cl)cc3)cc2NS(=O)(=O)c2ccc(C)cc2)cc1 [Compound 21, N-[4-(4-chloro-phenyl)-2-(4-toluenesulfonylamino)-phenyl]-4-toluenesulfonamide]
IC50 (Recombinant human Src; [1]): 8.6 µM
IC50 (Recombinant Csk; [1]): > 190 µM
IC50 (FGF receptor (FGFr); [1]): 23 µM

COc1ccc(Oc2ccc(NS(=O)(=O)c3ccc(C)cc3)c(OC)c2)cc1 [Compound 60, N-[2-methoxy-4-(4-methoxy-phenoxy)-phenyl]-4-toluenesulfonamide]
IC50 (Recombinant human Src; [3]): 129 µM
IC50 (Recombinant Csk; [3]): > 250 µM
IC50 (μM) FGFr (FGF receptor (FGFr); [3]): NI (NI = no inhibition at 100 μg/mL)

COc1ccc(OCc2ccc(OS(=O)(=O)c3ccc(C)cc3)c(OS(=O)(=O)c3ccc(C)cc3)c2)cc1 [Compound 48, [4-(4-methoxy-phenoxymethyl)-2-(4-toluenesulfonyloxy)-phenyl]-4-toluenesulfonate]
IC50 (Recombinant human Src; [3]): 102 µM
IC50 (Recombinant Csk; [3]): > 180 µM
IC50 (μM) FGFr (FGF receptor (FGFr); [3]): NI (NI = no inhibition at 100 μg/mL)

COc1cccc(Sc2cc(NS(=O)(=O)c3ccc(C)cc3)c(NS(=O)(=O)c3ccc(C)cc3)cc2[N+](=O)[O-])c1 [Compound 4c, N-[4-(3-methoxy-phenylsulfanyl)-5-nitro-2-(4-toluenesulfonylamino)-phenyl]-4-toluenesulfonamide]
IC50 (Recombinant human Src; [2]): 3.5 µM
IC50 (Recombinant Csk; [2]): 8.3 µM
IC50 (FGF receptor (FGFr); [2]): 7.5 µM

COc1cccc(NS(=O)(=O)c2ccc(C)cc2)c1NS(=O)(=O)c1ccc(C)cc1 [Compound 22a, N-[3-methoxy-2-(4-toluenesulfonylamino)-phenyl]-4-toluenesulfonamide]
IC50 (Recombinant human Src; [1]): > 224 µM
IC50 (Recombinant Csk; [1]): > 224 µM
IC50 (μM) FGFr (FGF receptor (FGFr); [1]): NI (NI = no inhibition at 100 μg/mL)

Cc1ccc(S(=O)(=O)Nc2cc(Sc3ccc(Cl)cc3)c([N+](=O)[O-])cc2NS(=O)(=O)c2ccc(C)cc2)cc1 [Compound 4e, N-[4-(4-chloro-phenylsulfanyl)-5-nitro-2-(4-toluenesulfonylamino)-phenyl]-4-toluenesulfonamide]
IC50 (Recombinant human Src; [2]): 8 µM
IC50 (Recombinant Csk; [2]): 23 µM
IC50 (FGF receptor (FGFr); [2]): 1.7 µM

CCCCSc1ccc(NS(=O)(=O)c2ccc(C)cc2)c(NS(=O)(=O)c2ccc(C)cc2)c1 [Compound 12hh, N-[4-butylsulfanyl-2-(4-toluenesulfonylamino)-phenyl]-4-toluenesulfonamide]
IC50 (Recombinant human Src; [1]): 18 µM
IC50 (Recombinant Csk; [1]): > 198 µM
IC50 (FGF receptor (FGFr); [1]): 30 µM

Cc1ccc(C(=O)Nc2cc(Sc3ccc(Cl)cc3)c([N+](=O)[O-])cc2NC(=O)c2ccc(C)cc2)cc1 [Compound 51, N-[4-(4-chloro-phenylsulfanyl)-5-nitro-2-(4-toluoylamino)-phenyl]-4-toluamide]
IC50 (Recombinant human Src; [3]): 153 µM
IC50 (Recombinant Csk; [3]): 51 µM
IC50 (FGF receptor (FGFr); [3]): 40 µM

COc1ccc(Sc2cc(NS(=O)(=O)c3ccc(C)cc3)c(NS(=O)(=O)c3ccc(C)cc3)cc2[N+](=O)[O-])cc1 [Compound 4a, N-[4-(4-methoxy-phenylsulfanyl)-5-nitro-2-(4-toluenesulfonylamino)-phenyl]-4-toluenesulfonamide]
IC50 (Recombinant human Src; [2]): 3.4 µM
IC50 (Recombinant Csk; [2]): 10.8 µM
IC50 (FGF receptor (FGFr); [2]): 5.8 µM

COc1ccc(Oc2ccc(NS(=O)(=O)c3ccc(NC(C)=O)cc3)c(NS(=O)(=O)c3ccc(NC(C)=O)cc3)c2)cc1 [Compound 12j, N-[2-(4-acetamido-benzenesulfonylamino)-4-(4-methoxy-phenoxy)-phenyl]-4-acetamido-benzenesulfonamide]
IC50 (Recombinant human Src; [1]): 50 µM
IC50 (Recombinant Csk; [1]): > 160 µM
IC50 (FGF receptor (FGFr); [1]): 192 µM
